Results reported in US10918645B2 (LIFEARC, priority 2016, dated 2021).

Experiments:
Type in all cases: biochemical
Details in all cases: 1 μM inhibitor concentration
[1] = biological target: IRR (Homo sapiens (Human), UniProt P14616); test: IRR kinase selectivity assay
Method: 5-20 mU of IRR (diluted in 50 mM Hepes (pH 7.5), 0.1 mM EGTA) is assayed against MBP in a final volume of 25.5 μl containing 50 mM Hepes (pH 7.5), 0.1 mM EGTA, 0.33 mg/ml MBP, 10 mM magnesium acetate and 0.005 mM [33P-g-ATP](500-1000 cpm/pmole) and incubated for 30 mins at room temperature. Assays are stopped by addition of 5 μl of 0.5M (3%) orthophosphoric acid. Assays are harvested onto P81 Unifilter plates using a wash buffer of 50 mM orthophosphoric acid.

[2] = biological target: MINK1 (Homo sapiens (Human), UniProt Q8N4C8); test: MINK1 kinase selectivity assay
MINK1, sequence (Q8N4C8 whole entry, species assumed): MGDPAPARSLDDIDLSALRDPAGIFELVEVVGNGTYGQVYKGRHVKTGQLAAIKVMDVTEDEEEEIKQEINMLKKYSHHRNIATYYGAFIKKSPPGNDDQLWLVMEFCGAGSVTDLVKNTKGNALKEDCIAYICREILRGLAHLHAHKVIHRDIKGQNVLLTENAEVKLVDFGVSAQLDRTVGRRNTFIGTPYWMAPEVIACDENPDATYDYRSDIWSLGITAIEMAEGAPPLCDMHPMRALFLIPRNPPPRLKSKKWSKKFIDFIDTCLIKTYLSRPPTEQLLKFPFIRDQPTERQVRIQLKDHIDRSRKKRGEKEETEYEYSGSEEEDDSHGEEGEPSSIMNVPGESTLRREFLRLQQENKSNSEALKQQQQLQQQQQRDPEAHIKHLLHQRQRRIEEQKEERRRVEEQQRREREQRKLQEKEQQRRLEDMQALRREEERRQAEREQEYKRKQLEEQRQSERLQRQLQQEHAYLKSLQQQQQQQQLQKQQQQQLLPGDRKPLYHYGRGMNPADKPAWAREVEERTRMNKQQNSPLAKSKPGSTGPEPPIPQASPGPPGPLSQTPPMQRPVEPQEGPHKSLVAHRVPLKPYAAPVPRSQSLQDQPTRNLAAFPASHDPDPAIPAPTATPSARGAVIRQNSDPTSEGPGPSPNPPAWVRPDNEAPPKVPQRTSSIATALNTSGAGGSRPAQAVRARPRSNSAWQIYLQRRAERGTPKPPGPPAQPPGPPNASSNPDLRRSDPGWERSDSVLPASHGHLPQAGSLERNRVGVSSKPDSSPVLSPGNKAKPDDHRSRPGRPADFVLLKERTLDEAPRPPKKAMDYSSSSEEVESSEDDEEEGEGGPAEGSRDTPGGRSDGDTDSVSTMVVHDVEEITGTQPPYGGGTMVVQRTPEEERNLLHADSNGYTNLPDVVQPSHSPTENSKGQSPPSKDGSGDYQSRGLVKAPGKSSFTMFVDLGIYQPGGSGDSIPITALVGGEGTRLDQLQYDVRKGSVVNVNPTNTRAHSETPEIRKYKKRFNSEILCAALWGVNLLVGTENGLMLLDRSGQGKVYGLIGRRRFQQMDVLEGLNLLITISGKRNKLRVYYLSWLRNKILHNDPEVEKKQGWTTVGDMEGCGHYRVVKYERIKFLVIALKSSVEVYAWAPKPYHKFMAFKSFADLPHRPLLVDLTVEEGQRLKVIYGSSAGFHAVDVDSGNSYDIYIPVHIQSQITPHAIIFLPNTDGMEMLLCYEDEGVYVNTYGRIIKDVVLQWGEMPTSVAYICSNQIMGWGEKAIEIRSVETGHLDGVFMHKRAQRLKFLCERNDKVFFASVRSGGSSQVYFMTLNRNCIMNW
Method: (§1) MINK1 (5-20 mU diluted in 50 mM Tris pH 7.5, 0.1 mM EGTA, 0.1% β-mercaptoethanol, 1 mg/ml BSA) is assayed against MBP in a final volume of 25.5 μl containing 50 mM Tris pH 7.5, 0.1 mM EGTA, 0.33 mg/ml MBP, 10 mM magnesium acetate and 0.05 mM [33P-γ-ATP] (50-1000 cpm/pmole) and incubated for 30 min at room temperature. Assays are stopped by addition of 5 μl of 0.5 M (3%) orthophosphoric acid and then harvested onto P81 Unifilter plates with a wash buffer of 50 mM orthophosphoric acid.

[3] = biological target: EPH-A2 (Homo sapiens (Human), UniProt P29317); test: EPH-A2 kinase selectivity assay
EPH-A2, sequence (P29317 24-976, species assumed): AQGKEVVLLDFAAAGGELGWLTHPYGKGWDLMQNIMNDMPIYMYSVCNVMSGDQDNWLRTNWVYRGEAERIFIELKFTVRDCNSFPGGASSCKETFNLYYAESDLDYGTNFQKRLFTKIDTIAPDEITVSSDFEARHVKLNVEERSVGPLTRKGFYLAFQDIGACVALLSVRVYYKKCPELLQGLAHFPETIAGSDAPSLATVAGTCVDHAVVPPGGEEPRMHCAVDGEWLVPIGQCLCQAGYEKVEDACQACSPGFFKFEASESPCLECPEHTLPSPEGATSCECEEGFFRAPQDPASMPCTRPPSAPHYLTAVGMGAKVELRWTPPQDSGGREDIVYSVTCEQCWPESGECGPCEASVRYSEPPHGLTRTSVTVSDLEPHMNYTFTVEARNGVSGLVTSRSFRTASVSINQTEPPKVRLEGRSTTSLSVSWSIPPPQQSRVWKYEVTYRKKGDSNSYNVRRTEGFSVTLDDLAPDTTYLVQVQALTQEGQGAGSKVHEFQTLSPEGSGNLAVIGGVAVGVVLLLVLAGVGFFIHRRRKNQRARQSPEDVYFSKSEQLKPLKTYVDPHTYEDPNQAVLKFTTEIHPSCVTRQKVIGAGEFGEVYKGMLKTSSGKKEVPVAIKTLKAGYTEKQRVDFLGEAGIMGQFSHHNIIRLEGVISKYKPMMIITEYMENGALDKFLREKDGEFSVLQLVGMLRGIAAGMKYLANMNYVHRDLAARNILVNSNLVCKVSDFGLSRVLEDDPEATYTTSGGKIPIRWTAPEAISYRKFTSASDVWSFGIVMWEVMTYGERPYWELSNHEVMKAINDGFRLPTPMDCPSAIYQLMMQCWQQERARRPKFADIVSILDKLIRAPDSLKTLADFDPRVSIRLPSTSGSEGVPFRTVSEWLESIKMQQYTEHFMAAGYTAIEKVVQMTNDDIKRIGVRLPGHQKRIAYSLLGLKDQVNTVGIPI
Method: as §1, with “EPH-A2” for “MINK1”, “EGTA,” for “EGTA, 0.1% β-mercaptoethanol,”, “a substrate peptide (Poly Glut Tyr)” for “MBP”, “0.1” for “0.1 mM EGTA, 0.33”, “substrate peptide,” for “MBP,”, “[33P-g-ATP]” for “[33P-γ-ATP]”

[4] = biological target: CSK (Homo sapiens (Human), UniProt P41240); test: CSK kinase selectivity assay
CSK, sequence (P41240 whole entry, species assumed): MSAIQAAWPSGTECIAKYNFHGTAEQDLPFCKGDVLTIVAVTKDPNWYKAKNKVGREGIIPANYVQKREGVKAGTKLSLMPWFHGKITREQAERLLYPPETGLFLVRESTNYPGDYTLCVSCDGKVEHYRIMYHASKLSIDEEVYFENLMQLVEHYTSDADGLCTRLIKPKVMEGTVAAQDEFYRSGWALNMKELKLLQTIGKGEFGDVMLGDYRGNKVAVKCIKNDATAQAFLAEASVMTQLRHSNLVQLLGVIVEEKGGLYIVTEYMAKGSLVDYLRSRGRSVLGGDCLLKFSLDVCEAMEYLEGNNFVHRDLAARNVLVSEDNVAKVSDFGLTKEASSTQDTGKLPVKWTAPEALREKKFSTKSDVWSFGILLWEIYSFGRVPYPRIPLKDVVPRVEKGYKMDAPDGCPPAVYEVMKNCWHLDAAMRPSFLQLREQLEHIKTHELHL
Method: CSK (5-20 mU diluted in 20 mM MOPS pH7.5, 1 mM EDTA, 0.01% Brij35, 5% glycerol, 0.1% b-mercaptoethanol, 1 mg/ml BSA) is assayed against Cdc2 peptide ([…]) in a final volume of 25.5 μl containing 8 mM MOPS pH7.0, 0.2 mM EDTA, Cdc2 peptide (0.25 mM), 10 mM magnesium acetate and 0.02 mM [33P-g-ATP](500-1000 cpm/pmole) and incubated for 30 min at room temperature Assays are stopped by addition of 5 μl of 0.5 M (3%) orthophosphoric acid and then harvested onto P81 Unifilter plates with a wash buffer of 50 mM orthophosphoric acid.

[5] = biological target: PKA (Homo sapiens (Human), UniProt P17612); test: PKA kinase selectivity assay
Method: PKA (5-20 mU diluted in 20 mM MOPS pH 7.5, 1 mM EDTA, 0.01% Brij35, 0.1% b-mercaptoethanol, 1 mg/ml BSA) is assayed against Kemptide (LRRASLG) in a final volume of 25.5 μl containing 8 mM MOPS pH 7.5, 0.2 mM EDTA, 30 μM substrate peptide, 10 mM magnesium acetate and 0.005 mM [33P-g-ATP] (50-1000 cpm/pmole) and incubated for 30 min at room temperature. Assays are stopped by addition of 5 μl of 0.5 M (3%) orthophosphoric acid and then harvested onto P81 Unifilter plates with a wash buffer of 50 mM orthophosphoric acid.

[6] = biological target: IGF-1R (Homo sapiens (Human), UniProt P08069); test: IGF-1R kinase selectivity assay
IGF-1R, sequence (P08069 31-1367, species assumed): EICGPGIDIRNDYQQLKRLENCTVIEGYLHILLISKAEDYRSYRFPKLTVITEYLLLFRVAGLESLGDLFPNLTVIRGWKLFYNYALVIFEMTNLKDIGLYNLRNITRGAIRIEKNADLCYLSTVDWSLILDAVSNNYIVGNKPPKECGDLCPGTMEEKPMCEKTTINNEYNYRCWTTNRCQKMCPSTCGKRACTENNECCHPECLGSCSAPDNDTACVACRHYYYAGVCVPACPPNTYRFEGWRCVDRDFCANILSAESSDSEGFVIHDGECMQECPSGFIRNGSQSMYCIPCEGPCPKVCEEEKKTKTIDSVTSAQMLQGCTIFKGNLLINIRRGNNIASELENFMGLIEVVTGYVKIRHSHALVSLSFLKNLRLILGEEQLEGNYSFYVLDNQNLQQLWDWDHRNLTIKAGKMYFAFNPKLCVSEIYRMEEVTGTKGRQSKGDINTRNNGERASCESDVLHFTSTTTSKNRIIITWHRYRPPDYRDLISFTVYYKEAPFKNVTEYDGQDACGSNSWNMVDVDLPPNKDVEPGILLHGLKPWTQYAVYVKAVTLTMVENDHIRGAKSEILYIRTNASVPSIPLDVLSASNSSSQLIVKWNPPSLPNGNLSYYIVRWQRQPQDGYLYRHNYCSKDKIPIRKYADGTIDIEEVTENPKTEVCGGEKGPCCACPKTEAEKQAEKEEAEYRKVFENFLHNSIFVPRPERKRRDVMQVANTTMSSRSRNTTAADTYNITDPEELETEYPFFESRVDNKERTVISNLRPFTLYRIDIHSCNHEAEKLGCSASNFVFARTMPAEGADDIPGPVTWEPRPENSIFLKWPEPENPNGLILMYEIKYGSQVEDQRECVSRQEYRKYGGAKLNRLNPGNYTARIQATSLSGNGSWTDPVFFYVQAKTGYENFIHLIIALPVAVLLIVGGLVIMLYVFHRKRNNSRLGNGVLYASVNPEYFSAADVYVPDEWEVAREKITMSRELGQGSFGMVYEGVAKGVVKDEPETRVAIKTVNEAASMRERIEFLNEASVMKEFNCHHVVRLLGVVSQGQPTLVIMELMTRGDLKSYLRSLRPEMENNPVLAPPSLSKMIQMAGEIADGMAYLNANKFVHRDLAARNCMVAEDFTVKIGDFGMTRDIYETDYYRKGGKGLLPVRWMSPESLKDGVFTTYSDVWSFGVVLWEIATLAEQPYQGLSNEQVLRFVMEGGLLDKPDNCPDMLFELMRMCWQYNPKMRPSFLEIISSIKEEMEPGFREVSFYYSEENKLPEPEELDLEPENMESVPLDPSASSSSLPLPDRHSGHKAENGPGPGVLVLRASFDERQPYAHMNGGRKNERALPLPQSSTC
Method: as §1, with “IGF-1R” for “MINK1”, “EGTA,” for “EGTA, 0.1% β-mercaptoethanol,”, “a substrate peptide ([…])” for “MBP”, “300 µM substrate peptide,” for “0.1 mM EGTA, 0.33 mg/ml MBP,”, “0.005” for “0.05”, “[33P-g-ATP]” for “[33P-γ-ATP]”

[7] = biological target: DYRK1A (Homo sapiens (Human), UniProt Q13627); test: DYRK1A kinase selectivity assay
Method: DYRK 1A (5-20 mU of diluted in 50 mM Tris pH7.5, 0.1 mM EGTA) is assayed against Woodtide ([…]) in a final volume of 25.5 μl containing 50 mM Tris pH 7.5, 0.1 mM EGTA, 350 μM substrate peptide, 10 mM Magnesium acetate and 0.05 mM [33P-g-ATP](50-1000 cpm/pmole) and incubated for 30 min at room temperature. Assays are stopped by addition of 5 μl of 0.5 M (3%) orthophosphoric acid and then harvested onto P81 Unifilter plates with a wash buffer of 50 mM orthophosphoric acid.

[8] = biological target: EF2K (Homo sapiens (Human), UniProt O00418); test: EF2K kinase selectivity assay
Method: EF2K (5-20 mU diluted in 50 mM Hepes pH 6.6, 0.1% b-mercaptoethanol, 1 mg/ml BSA) is assayed against a substrate peptide ([…]) in a final volume of 25.5 μl containing 50 mM Hepes pH 6.6, 0.2 mM CaCl2, 0.3 μM Calmodulin, 0.05% b-mercaptoethanol, 300 μM substrate peptide, 10 mM magnesium acetate and 0.005 mM [33P-g-ATP] (50-1000 cpm/pmole) and incubated for 30 min at room temperature. Assays are stopped by addition of 5 μl of 0.5 M (3%) orthophosphoric acid and then harvested onto P81 Unifilter plates with a wash buffer of 50 mM orthophosphoric acid.

[9] = test system: Lck; test: Lck kinase selectivity assay
Method: LCK (5-20 mU diluted in 20 mM MOPS pH 7.5, 1 mM EDTA, 0.01% Brij35, 5% glycerol, 0.1% b-mercaptoethanol, 1 mg/ml BSA) is assayed against Cdc2 peptide ([…]) in a final volume of 25.5 μl containing 50 mM Tris pH 7.5, 0.1 mM EGTA, 0.1 mM Na3Vo4, Cdc2 peptide (0.25 mM), 10 mM magnesium acetate and 0.05 mM [33P-g-ATP](500-1000 cpm/pmole) and incubated for 15 min at room temperature Assays are stopped by addition of 5 μl of 0.5 M (3%) orthophosphoric acid and then harvested onto P81 Unifilter plates with a wash buffer of 50 mM orthophosphoric acid.

Row | SMILES | percentage inhibition of IRR [1] | percentage inhibition of MINK1 [2] | percentage inhibition of EPH-A2 [3] | percentage inhibition of CSK [4] | percentage inhibition of PKA [5] | percentage inhibition of IGF-1R [6] | percentage inhibition of DYRK1A [7] | percentage inhibition of EF2K [8] | percentage inhibition of Lck [9]
1 | c1cc2[nH]nc3c2c(n1)N(C1CCOCC1)CCC3 [Example 29, 6-(tetrahydro-2H-pyran-4-yl)-6,7,8,9-tetrahydro-2H-1,2,5,6-tetraazabenzo[cd]azulene] | 6 percentage | 0 percentage | 0 percentage | 0 percentage | 0 percentage | 9 percentage | 4 percentage | 0 percentage | 0 percentage
2 | c1cc2[nH]nc3c2c(n1)N(C1CCC1)CCC3 [Example 22, 6-cyclobutyl-6,7,8,9-tetrahydro-2H-1,2,5,6-tetraazabenzo[cd]azulene] | 8 percentage | 0 percentage | 0 percentage | 1 percentage | 0 percentage | 9 percentage | 16 percentage | 0 percentage | 0 percentage
3 | CN1CCC(N2Cc3ccccc3-c3n[nH]c4ccnc2c34)CC1 [Example 55] | 18 percentage | 12 percentage | 0 percentage | 0 percentage | 0 percentage | 8 percentage | 8 percentage | 1 percentage | 6 percentage
4 | CC(C)n1ncc2c1CN(C1CCN(C)CC1)c1nccc3[nH]nc-2c13 [Example 68] | 1 percentage | 7 percentage | 0 percentage | 0 percentage | 0 percentage | 0 percentage | 0 percentage | 1 percentage | 0 percentage
5 | c1cc2[nH]nc3c2c(n1)N(C1CCCC1)CCC3 [Example 23, 6-cyclopentyl-6,7,8,9-tetrahydro-2H-1,2,5,6-tetraazabenzo[cd]azulene] | 4 percentage | 0 percentage | 0 percentage | 0 percentage | 0 percentage | 2 percentage | 0 percentage | 0 percentage | –
